Laboratory results as given in ChEMBL document CHEMBL1129641 (J Med Chem, 1996).

Columns and labels:
[1] = molecular target: T1, Beta-2 adrenergic receptor (Homo sapiens, UniProt P07550); settings: CHO
Target sequence in this assay (P07550 whole entry, looked up): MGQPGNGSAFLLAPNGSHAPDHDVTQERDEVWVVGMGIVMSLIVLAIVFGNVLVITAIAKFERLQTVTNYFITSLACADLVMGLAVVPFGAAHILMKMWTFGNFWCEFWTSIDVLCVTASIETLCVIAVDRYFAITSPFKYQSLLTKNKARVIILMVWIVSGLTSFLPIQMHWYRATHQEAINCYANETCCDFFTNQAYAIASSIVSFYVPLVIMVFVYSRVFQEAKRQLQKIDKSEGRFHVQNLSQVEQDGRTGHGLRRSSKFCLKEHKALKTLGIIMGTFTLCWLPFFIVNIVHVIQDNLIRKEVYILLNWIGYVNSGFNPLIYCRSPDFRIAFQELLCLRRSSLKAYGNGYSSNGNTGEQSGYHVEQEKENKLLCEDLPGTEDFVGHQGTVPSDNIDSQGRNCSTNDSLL
Description: Binding affinity for human beta-2 Adrenoceptor (AR) expressed in CHO cells by radioligand competition binding assays using [125I]-iodocyanopindolol (ICYP); PR = potency ratio relative to TMQ

[2] = molecular target: T2, Thromboxane A2 receptor (Homo sapiens) (UniProt P21731); experiment: Binding affinity for human Platelet Thromboxane A2 / Prostaglandin (TP), by radioligand competition binding assays using [3H]-SQ 29548 as radioligand. PR = potency ratio relative to TMQ
T2 sequence (whole entry): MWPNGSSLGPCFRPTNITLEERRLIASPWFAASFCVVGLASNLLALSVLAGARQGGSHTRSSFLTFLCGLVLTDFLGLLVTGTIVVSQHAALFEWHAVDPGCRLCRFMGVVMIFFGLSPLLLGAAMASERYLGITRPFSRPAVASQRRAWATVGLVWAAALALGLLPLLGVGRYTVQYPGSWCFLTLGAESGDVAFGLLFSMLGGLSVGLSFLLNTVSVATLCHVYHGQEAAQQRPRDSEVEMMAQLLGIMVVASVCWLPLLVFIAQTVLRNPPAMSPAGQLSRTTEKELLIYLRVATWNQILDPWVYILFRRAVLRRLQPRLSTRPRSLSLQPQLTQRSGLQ

[3] = molecular target: T1, Beta-2 adrenergic receptor; experiment: Binding affinity for human Beta-2 adrenergic receptor expressed in CHO cells by radioligand competition binding assays using [125I]iodocyanopindolol (ICYP); format: cell-based
Target sequence in this assay (P07550 whole entry): as the sequence (P07550 whole entry, looked up) above

[4] = molecular target: T3, Thromboxane A2 receptor (Homo sapiens, UniProt P21731); experiment: Binding affinity for human Platelet Thromboxane A2 / Prostaglandin (TP), by radioligand competition binding assays using [3H]-SQ 29548 as radioligand
T3 sequence (P21731 whole entry): T2 sequence (whole entry)

SMILES | PR [1] | PR [2] | Ki [3] [nM] | Ki [4] [nM]
Oc1cc2c(cc1O)C(Cc1cc(C(F)(F)F)cc(C(F)(F)F)c1)NCC2 (stereo not drawn) | 0.01 | 0.002 | – | –
O=C(Nc1ccc(CC2NCCc3cc(O)c(O)cc32)cc1I)c1ccccc1 (stereo not drawn) | 22 | 0.03 | – | –
Oc1cc2c(cc1O)C(Cc1cc(I)c(I)c(I)c1)NCC2 (stereo not drawn) | 29 | 0.003 | – | –
Nc1ccc(CC2NCCc3cc(O)c(O)cc32)cc1I (stereo not drawn) | 6.8 | 0.16 | 6.46 | 1000
Nc1c(I)cc(CC2NCCc3cc(O)c(O)cc32)cc1I (stereo not drawn) | 28 | 0.87 | – | –
COc1cc(C[C@@H]2NCCc3cc(O)c(O)cc32)cc(OC)c1OC | 1 | 1 | – | –
COc1c(I)cc(CC2NCCc3cc(O)c(O)cc32)cc1I (stereo not drawn) | 21 | 3.5 | – | –
CC(=O)Nc1ccc(CC2NCCc3cc(O)c(O)cc32)cc1I (stereo not drawn) | 5.6 | 0.11 | – | –
